The text below walks through data of patent US11339130B1 (Blade Therapeutics, Inc., priority 2016, dated 2022).

What all share (format): biochemical
In assay [1] the target is T1, Human Calpain 1/NS1 (Homo sapiens, UniProt P07384).
T1 sequence (P07384 1-714): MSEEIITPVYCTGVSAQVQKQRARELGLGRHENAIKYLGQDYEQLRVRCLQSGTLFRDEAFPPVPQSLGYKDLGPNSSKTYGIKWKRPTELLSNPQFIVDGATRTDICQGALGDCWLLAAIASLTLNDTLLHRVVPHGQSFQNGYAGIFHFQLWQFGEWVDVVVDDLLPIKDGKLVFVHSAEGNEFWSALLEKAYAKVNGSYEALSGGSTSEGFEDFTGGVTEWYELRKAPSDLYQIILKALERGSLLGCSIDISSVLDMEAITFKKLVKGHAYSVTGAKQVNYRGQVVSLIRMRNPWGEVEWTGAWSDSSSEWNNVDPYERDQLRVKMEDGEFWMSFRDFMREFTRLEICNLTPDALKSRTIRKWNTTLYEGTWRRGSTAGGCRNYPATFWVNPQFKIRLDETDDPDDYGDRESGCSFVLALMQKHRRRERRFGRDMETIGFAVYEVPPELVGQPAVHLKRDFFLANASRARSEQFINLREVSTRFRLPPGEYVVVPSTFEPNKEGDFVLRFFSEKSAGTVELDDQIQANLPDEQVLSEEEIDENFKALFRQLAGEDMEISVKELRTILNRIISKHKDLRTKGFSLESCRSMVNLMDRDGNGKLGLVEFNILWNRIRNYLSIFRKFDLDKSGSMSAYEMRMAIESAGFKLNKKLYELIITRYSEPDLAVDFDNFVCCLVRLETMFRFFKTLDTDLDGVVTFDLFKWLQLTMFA
T1 sequence (P04632 1-268 partner): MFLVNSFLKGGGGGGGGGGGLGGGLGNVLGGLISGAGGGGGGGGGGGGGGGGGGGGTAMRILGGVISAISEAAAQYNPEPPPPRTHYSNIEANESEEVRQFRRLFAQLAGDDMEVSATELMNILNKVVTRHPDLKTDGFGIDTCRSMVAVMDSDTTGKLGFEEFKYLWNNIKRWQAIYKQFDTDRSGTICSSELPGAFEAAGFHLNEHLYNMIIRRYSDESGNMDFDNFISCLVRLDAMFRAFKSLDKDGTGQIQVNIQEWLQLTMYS
Put plainly: Calpain inhibition continuous fluorescence (FRET) assay, Human Calpain 1/NS1. Particulars: read-out: Human Calpain 1/NS1 IC50. In a few lines:
(§1)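 Human calpains 1, 2 and 9 preincubated with inhibitor at 25 °C in 50 mM Tris pH 7.5, 100 mM NaCl, 1 mM DTT; reaction started with 5-FAM/QXL 520 FRET peptide plus CaCl2 for activation. Fluorescence (490/520 nm) followed 10 min; rates from 1-5 min slopes fitted to 4-parameter logistic for IC50.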

For assay [2], the target named is T2, Human Calpain 2/NS1 (Homo sapiens, UniProt P17655).
T2 sequence (P17655 1-700): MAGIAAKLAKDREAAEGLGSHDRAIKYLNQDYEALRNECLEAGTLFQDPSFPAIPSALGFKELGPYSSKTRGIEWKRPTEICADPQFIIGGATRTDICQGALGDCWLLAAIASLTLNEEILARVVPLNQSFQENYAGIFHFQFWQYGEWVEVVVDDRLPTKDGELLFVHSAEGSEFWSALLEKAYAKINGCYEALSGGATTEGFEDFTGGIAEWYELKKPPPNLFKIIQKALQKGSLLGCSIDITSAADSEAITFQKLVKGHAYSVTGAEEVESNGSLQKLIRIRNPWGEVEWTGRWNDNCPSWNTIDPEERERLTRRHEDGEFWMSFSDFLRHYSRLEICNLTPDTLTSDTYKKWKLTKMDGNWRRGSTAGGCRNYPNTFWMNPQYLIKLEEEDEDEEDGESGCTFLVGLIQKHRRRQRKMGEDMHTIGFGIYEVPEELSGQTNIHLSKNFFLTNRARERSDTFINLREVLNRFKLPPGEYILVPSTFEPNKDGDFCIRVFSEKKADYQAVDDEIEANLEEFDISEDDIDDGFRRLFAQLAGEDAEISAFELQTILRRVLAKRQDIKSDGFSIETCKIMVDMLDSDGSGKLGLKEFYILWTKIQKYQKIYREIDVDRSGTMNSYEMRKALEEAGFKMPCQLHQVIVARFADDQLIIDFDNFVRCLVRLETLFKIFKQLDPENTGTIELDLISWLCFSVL
T2 sequence (P04632 1-268 partner): T1 sequence (P04632 1-268 partner)
Put plainly: Calpain inhibition continuous fluorescence (FRET) assay, Human Calpain 2/NS1. Particulars: read-out: Human Calpain 2/NS1 IC50. A digest of the protocol: as §1

Assay [3] deals with T3, Human Calpain 9/NS1 (Homo sapiens, UniProt O14815).
T3 sequence (O14815 1-690): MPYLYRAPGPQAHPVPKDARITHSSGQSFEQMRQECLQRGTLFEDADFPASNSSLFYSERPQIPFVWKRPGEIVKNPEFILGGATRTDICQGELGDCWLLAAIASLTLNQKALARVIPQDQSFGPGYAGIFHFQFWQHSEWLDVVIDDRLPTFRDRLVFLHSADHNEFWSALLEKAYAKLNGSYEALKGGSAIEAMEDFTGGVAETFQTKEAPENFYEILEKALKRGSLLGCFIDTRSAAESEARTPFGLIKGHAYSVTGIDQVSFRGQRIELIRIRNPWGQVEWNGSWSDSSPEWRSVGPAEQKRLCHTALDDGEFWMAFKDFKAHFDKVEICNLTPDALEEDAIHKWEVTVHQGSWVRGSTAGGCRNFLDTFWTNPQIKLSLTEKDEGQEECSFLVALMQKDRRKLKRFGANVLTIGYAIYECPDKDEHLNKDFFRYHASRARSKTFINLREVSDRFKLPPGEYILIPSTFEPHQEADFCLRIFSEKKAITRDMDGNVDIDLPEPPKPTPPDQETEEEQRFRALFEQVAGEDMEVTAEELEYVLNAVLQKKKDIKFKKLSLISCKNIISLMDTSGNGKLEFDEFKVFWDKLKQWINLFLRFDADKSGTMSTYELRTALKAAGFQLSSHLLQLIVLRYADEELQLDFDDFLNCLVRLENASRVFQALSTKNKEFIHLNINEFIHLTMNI
T3 sequence (P04632 1-268 partner): T1 sequence (P04632 1-268 partner)
Put plainly: Calpain inhibition continuous fluorescence (FRET) assay, Human Calpain 9/NS1. Particulars: read-out: Human Calpain 9/NS1 IC50. A digest of the protocol:
as §1

Where two headings read alike, the source gives them in different places.

`Cc1cc(C(=O)N[C@@H](Cc2ccccc2)C(=O)C(=O)NC2CC2)n(-c2cncc3ccccc23)n1` [Compound 134, (S)—N-(4-(cyclopropylamino)-3,4-dioxo-1-phenylbutan-2-yl)-1-(isoquinolin-4-yl)-3-methyl-1H-pyrazole-5-carboxamide]: the IC50 in assay [1] (Column A), in assay [2] (Column B) and in assay [3] (Column C) was 3 to 10 µM in each case.
In the case of `Cc1noc(-c2ccccc2)c1C(=O)N[C@@H](Cc1ccccc1)C(=O)C(=O)NC1CC1` [Compound 100, (S)—N-(4-(cyclopropylamino)-3,4-dioxo-1-phenylbutan-2-yl)-3-methyl-5-phenylisoxazole-4-carboxamide], the IC50 in assay [1] (Column A), in assay [2] (Column B) and in assay [3] (Column C) was less than 3 µM each time.
Turning to `Cc1cc(C)nc(-n2nc(C)cc2C(=O)N[C@@H](Cc2ccccc2)C(=O)C(N)=O)c1` [Compound 123, (S)—N-(4-amino-3,4-dioxo-1-phenylbutan-2-yl)-1-(4,6-dimethylpyridin-2-yl)-3-methyl-1H-pyrazole-5-carboxamide], the IC50 in assay [1] (Column A), in assay [2] (Column B) and in assay [3] (Column C) was less than 3 µM in each case.
With `CC(C)(C)c1cc(C(=O)N[C@@H](Cc2ccccc2)C(=O)C(N)=O)n(-c2ccccc2)n1` [Compound 128, (S)—N-(4-amino-3,4-dioxo-1-phenylbutan-2-yl)-3-(tert-butyl)-1-phenyl-1H-pyrazole-5-carboxamide], the results for the IC50 in assay [1] (Column A), in assay [2] (Column B) and in assay [3] (Column C) were 3 to 10 µM, more than 10 µM and 3 to 10 µM, respectively.
Take `Cc1noc(-c2ccccc2)c1C(=O)N[C@@H](Cc1ccccc1)C(=O)C(=O)NCc1cccnc1` [Compound 224, (S)—N-(3,4-dioxo-1-phenyl-4-((pyridin-3-ylmethyl)amino)butan-2-yl)-3-methyl-5-phenylisoxazole-4-carboxamide]: the IC50 in assay [1] (Column A) was less than 3 µM; in assay [2] (Column B) it was 3 to 10 µM; in assay [3] (Column C) it was 3 to 10 µM.
On to `Cn1cc(C(=O)NC(Cc2ccccc2)C(=O)C(N)=O)c(C2CCCN(C(=O)OC(C)(C)C)C2)n1` (stereo not drawn) [Compound 624, Tert-Butyl 3-(4-((4-amino-3,4-dioxo-1-phenylbutan-2-yl)carbamoyl)-1-methyl-1H-pyrazol-3-yl)piperidine-1-carboxylate], for which the IC50 in assay [1], in assay [2] and in assay [3] was less than 3 µM throughout.
Consider `NC(=O)C(=O)[C@H](Cc1ccccc1)NC(=O)c1cncn1-c1ccn(-c2ccccc2)n1` [Compound 68, (S)—N-(4-amino-3,4-dioxo-1-phenylbutan-2-yl)-1-(1-phenyl-1H-pyrazol-3-yl)-1H-imidazole-5-carboxamide], for which the IC50 in assay [1] (Column A), in assay [2] (Column B) and in assay [3] (Column C) was less than 3 µM each time.
Take `Cc1cc(-n2nc(C)cc2C(=O)N[C@@H](Cc2ccccc2)C(=O)C(N)=O)nc(C)n1` [Compound 235, (S)—N-(4-amino-3,4-dioxo-1-phenylbutan-2-yl)-1-(2,6-dimethylpyrimidin-4-yl)-3-methyl-1H-pyrazole-5-carboxamide]: the IC50 in assay [1] (Column A), in assay [2] (Column B) and in assay [3] (Column C) was less than 3 µM each time.
As to `Cc1nc(-c2cccc3c2OC(F)(F)O3)c(C(=O)NC(Cc2ccccc2)C(=O)C(N)=O)o1` (stereo not drawn) [Compound 618, N-(4-amino-3,4-dioxo-1-phenylbutan-2-yl)-4-(2,2-difluorobenzo[d][1,3]dioxol-4-yl)-2-methyloxazole-5-carboxamide], the IC50 in assay [1], in assay [2] and in assay [3] was less than 3 µM throughout.
With `Cc1cc(C(=O)N[C@@H](Cc2ccccc2)C(=O)C(N)=O)nn1-c1nc2ccccc2o1` [Compound 256, (S)—N-(4-amino-3,4-dioxo-1-phenylbutan-2-yl)-1-(benzo[d]oxazol-2-yl)-5-methyl-1H-pyrazole-3-carboxamide], the results for the IC50 in assay [1] (Column A), in assay [2] (Column B) and in assay [3] (Column C) were more than 10 µM, more than 10 µM and less than 3 µM, respectively.
In the case of `NC(=O)C(=O)[C@H](Cc1ccccc1)NC(=O)c1scnc1-n1cc(-c2ccccc2)cn1` [Compound 39, (S)—N-(4-amino-3,4-dioxo-1-phenylbutan-2-yl)-4-(4-phenyl-1H-pyrazol-1-yl)thiazole-5-carboxamide], the IC50 in assay [1] (Column A), in assay [2] (Column B) and in assay [3] (Column C) was less than 3 µM throughout.
As for `NC(=O)C(=O)[C@H](Cc1ccccc1)NC(=O)c1ncoc1-c1ccccc1` [Compound 148, (S)—N-(4-amino-3,4-dioxo-1-phenylbutan-2-yl)-5-phenyloxazole-4-carboxamide], the IC50 in assay [1] (Column A), in assay [2] (Column B) and in assay [3] (Column C) was less than 3 µM each time.
In the case of `COc1ccc2nc(-n3nc(C)cc3C(=O)N[C@@H](Cc3ccccc3)C(=O)C(N)=O)sc2c1` [Compound 297, (S)—N-(4-amino-3,4-dioxo-1-phenylbutan-2-yl)-1-(6-methoxybenzo[d]thiazol-2-yl)-3-methyl-1H-pyrazole-5-carboxamide], the IC50 in assay [1] (Column A) was more than 10 µM; in assay [2] (Column B) it was 3 to 10 µM; in assay [3] (Column C), less than 3 µM.
Turning to `O=C[C@H](Cc1ccccc1)NC(=O)c1cncn1-c1nc2ccccc2[nH]1` [Compound 90, (S)-1-(1H-benzo[d]imidazol-2-yl)-N-(1-oxo-3-phenylpropan-2-yl)-1H-imidazole-5-carboxamide], the IC50 in assay [1] (Column A) is less than 3 µM; in assay [2] (Column B), less than 3 µM; in assay [3] (Column C), 3 to 10 µM.
For the compound `Cc1cc(C(=O)N[C@@H](Cc2ccccc2)C(=O)C(=O)NC2CC2)nn1-c1nc(-c2ccccc2)cs1` [Compound 125, (S)—N-(4-(cyclopropylamino)-3,4-dioxo-1-phenylbutan-2-yl)-5-methyl-1-(4-phenylthiazol-2-yl)-1H-pyrazole-3-carboxamide], the IC50 in assay [1] (Column A), in assay [2] (Column B) and in assay [3] (Column C) was more than 10 µM throughout.
